Columns and labels:
Format in all cases: in vivo, mouse
[1] = HCT116 tumor xenograft model, host response (body weight, survival, neutrophils); settings: q4d × 3; for Neutrophils/ul 72 h post-dose +/− S.D.: 72 h after last dose
Description: (§1) The cell line HCT-116 has been widely used in the evaluation of mitotic inhibitors such as microtubule disruptors, mitotic kinase inhibitors and KSP inhibitors. A multi-dose efficacy study on a four times per day for three days (q4d×3) dosing schedule was performed. Experiments were performed using outbred athymic nu/nu mice approximately 6-8 weeks old (Charles River Laboratories, Hollister, Calif.). […] Mice were housed 4-5 animals per cage in clear polycarbonate micro-isolator cages with a 12-hour light, 12-hour dark cycle at temperatures between 70-80 degrees Fahrenheit and 30-70% relative humidity. Food (Purina rodent chow pellets) and water were provided ad libitum. Mice were handled in accordance with Novartis ACUC regulations and guidelines and the ILAR Guide for the Care and Use of Laboratory Animals. Experiments were performed in an AAALAC accredited facility under an ACUC approved protocol.
(§2) Compound IIa (free base) and SB-715992 (ispinesib, a KSP inhibitor by Cytokinetics that is in clinical trials; as its free base) were formulated in 20% Captisol® for all the above doses for a dose volume of 8 mL/kg. Doses were adjusted to each animal's body weight.
(§3) Female nu/nu mice (Charles River, Hollister, Calif.) were injected subcutaneously in the right flank with 5 million HCT-116 tumor cells suspended in Hank's Balanced Salt Solution (HBSS) in a total volume of 0.1 mL/mouse. For the efficacy studies, mice were randomized 10 days post-implant. […] Tumor volume was calculated as (L×W2)/2. […] Percent treatment/control (T/C) values were calculated using the following formula: % T/C=100×ΔT/ΔC
Since a dose as low as 1.25 mg/kg on a q4d×3 schedule induced regression of HCT116 xenografts, the efficacy study was repeated with a range of doses from 2 to 0.125 mg/kg to observe a dose response and determine how low a dose can be given to induce tumor regression. […] Only the 7.5 mg/kg dose of SB-715992 induced tumors to regress. Additionally, 72 hrs after the last dose, blood was collected to compare the circulating neutrophil levels among groups. Neutrophils were reduced in a dose responsive manner, similar to the tumor efficacy effect.

[2] = Subcutaneous MV4; 11 tumor xenograft model, host response
Description: Subcutaneous tumor efficacy studies were performed using outbred athymic nu/nu mice approximately 6-8 weeks old (Charles River Laboratories, Hollister, Calif.). The efficacy study in the disseminated disease model was performed using immunodeficient NOD-SCID female mice approximately 7-8 weeks old (Jackson Laboratories, Bar Harbor, Me.). […] Routine animal care and assurance of welfare were as described above.
The compound IIa (free base) and SB-715992 (free base) were formulated in 20% Captisol for a dose volume of 8 mL/kg. Doses were adjusted to each animal's body weight.
For the two efficacy evaluations in the subcutaneous tumor model, 10 million cells combined in a 1:1 mixture of HBSS and Matrigel™ were injected subcutaneously in the right flank in a total volume of 0.2 mL/mouse. […] Tumor volume was calculated as (L×W2)/2.

HCT116 tumor xenograft = HCT116 tumor xenograft model, tumor response
Description: as §1, with “A multi-dose efficacy study on a four times per day for three days (q4d×3) dosing schedule was performed.” left out
as §2
Human HCT116 colon carcinoma cells were obtained from the National Cancer Institute's DCTD Tumor Repository (catalog #NCI-502568, Rockville, Md.) and tested to be free of Mycoplasma sp. and murine viruses in the IMPACT1 PCR assay panel (RADIL, University of Missouri, Columbia, Mo.). HCT116 cells were grown in RPMI 1640 with 2 mM L-glutamine (Mediatech Inc., catalog #15-040-CV) supplemented with 10% fetal bovine serum (JRH Biosciences, catalog #12003-1000M). These cells were grown as adherent cultures, maintained at 37° C. in a humidified atmosphere containing 5% carbon dioxide. Cells were cultured for fewer than 10 passages prior to use. Cells were harvested at 95% confluency, and centrifuged at ˜800×g for 5 minutes at 4° C. and then resuspended in a cold HBSS (Mediatech Inc., catalog #21-021-CV) at a concentration of 50 million cells/mL for implantation subcutaneously (injection volume of 0.1 mL).
as §3
All data were expressed as mean and SEM. Between-groups comparisons for final tumor measurements were performed using the one-way ANOVA pair-wise analysis. Significance was determined using Kruskal-Wallis one-way ANOVA on Ranks and Dunn's method for multiple pair-wise comparisons. Statistical analysis was carried out using SigmaStat (Systat Software Inc., San Jose, Calif.).

[3] = Study 2, 1.8 mg/kg, Q4d × 3, i.v, D10
[4] = Study 2, 3.5 mg/kg, Q4d × 3, i.v, D3
[5] = Study 2, 7.5 mg/kg, Q4d × 3, i.v, D10

## CC(C)(C)[C@H](c1nc(-c2cc(F)ccc2F)cn1Cc1ccccc1)N(CC[C@H](N)CF)C(=O)CO [Compound IIa]
[1]; 0.125 mg/kg, i.v.
  Survival (alive/total): 9/9
[1]; 0.25 mg/kg, i.v.
  Survival (alive/total): 9/9
[1]; 0.5 mg/kg, i.v.
  Survival (alive/total): 9/9
[1]; 1 mg/kg, i.v.
  Survival (alive/total): 9/9
[1]; 1.25 mg/kg, i.v.
  Survival (alive/total): 9/9
[1]; 2 mg/kg, i.v., (body weight loss)
  Survival (alive/total): 8/9 (body
[1]; 2.5 mg/kg, i.v.
  Survival (alive/total): 9/9
[1]; 5 mg/kg, i.v., (body weight loss)
  Survival (alive/total): 8/9 (body
[2]; 0.625 mg/kg, q4d × 3, i.v.
  Survival (alive/total): 4/4
[2]; 4 mg/kg, q4d × 3, i.v.
  Survival (alive/total): 9/9
[2]; Study 2, 0.13 mg/kg, q4d × 3, i.v
  Survival (alive/total): 9/9
[2]; Study 2, 0.25 mg/kg, q4d × 3, i.v
  Survival (alive/total): 9/9
[2]; Study 2, 0.5 mg/kg, q4d × 3, i.v
  Survival (alive/total): 9/9
[2]; Study 2, 1 mg/kg, q4d × 3, i.v
  Survival (alive/total): 9/9
[2]; Study 2, 2 mg/kg, q4d × 3, i.v
  Survival (alive/total): 9/9
HCT116 tumor xenograft; 0.125 mg/kg, i.v., q4d × 3
  T/C, Day 24 (%): 81%
  Δ Tumor volume, Day 24: 809 ± 193 mm^3
HCT116 tumor xenograft; 0.125 mg/kg, q4d×3
  anti-tumor effect: not significantly different from vehicle control
HCT116 tumor xenograft; 0.25 mg/kg, i.v., q4d × 3
  T/C, Day 24 (%): 35%
  Δ Tumor volume, Day 24: 382 ± 120 mm^3
HCT116 tumor xenograft; 0.5 mg/kg, i.v., q4d × 3
  T/C, Day 24 (%): 14%
  Δ Tumor volume, Day 24: 155 ± 145 mm^3
HCT116 tumor xenograft; 0.5 mg/kg, i.v., q4d × 3, D14
  Max. % Regression (Day): 8%
HCT116 tumor xenograft; 1 mg/kg, i.v., q4d × 3
  Δ Tumor volume, Day 24: −34 ± 36 mm^3
HCT116 tumor xenograft; 1 mg/kg, i.v., q4d × 3, D17
  Max. % Regression (Day): 46%
HCT116 tumor xenograft; 1.25 mg/kg, i.v., q4d × 3
  Δ Tumor volume, Day 17: −173 ± 12 mm^3
HCT116 tumor xenograft; 1.25 mg/kg, i.v., q4d × 3, D20
  Max. % Regression (Day): 66%
HCT116 tumor xenograft; 2 mg/kg, i.v., q4d × 3
  Δ Tumor volume, Day 24: −141 ± 48 mm^3
HCT116 tumor xenograft; 2 mg/kg, i.v., q4d × 3, D21
  Max. % Regression (Day): 73%
HCT116 tumor xenograft; 2.5 mg/kg, i.v., q4d × 3
  Δ Tumor volume, Day 17: −208 ± 17 mm^3
HCT116 tumor xenograft; 2.5 mg/kg, i.v., q4d × 3, D20
  Max. % Regression (Day): 82%
HCT116 tumor xenograft; 5 mg/kg, i.v., q4d × 3 (only first two doses given)
  Δ Tumor volume, Day 17: −196 ± 11 mm^3
HCT116 tumor xenograft; 5 mg/kg, i.v., q4d × 3 (only first two doses given), D20
  Max. % Regression (Day): 73%
HCT116 tumor xenograft; as low as 0.25 mg/kg, q4d×3, during the dosing interval
  anti-tumor effect: tumor stasis

## CC(=O)O[C@H]1C(=O)[C@@]2(C)[C@H]([C@H](OC(=O)c3ccccc3)[C@]3(O)C[C@H](OC(=O)[C@H](O)[C@@H](NC(=O)c4ccccc4)c4ccccc4)C(C)=C1C3(C)C)[C@]1(OC(C)=O)CO[C@@H]1C[C@@H]2O [Paclitaxel, reference compound]
[1]; 30 mg/kg, i.p.
  Survival (alive/total): 9/9
[2]; 1 mg/kg, q4d × 3, i.p.
  Survival (alive/total): 9/9
HCT116 tumor xenograft; 30 mg/kg, i.p., q4d × 3
  Δ Tumor volume, Day 17: −80 ± 3 mm^3
HCT116 tumor xenograft; 30 mg/kg, i.p., q4d × 3, D17
  Max. % Regression (Day): 31%

## Cc1ccc(C(=O)N(CCCN)[C@@H](c2nc3cc(Cl)ccc3c(=O)n2Cc2ccccc2)C(C)C)cc1 [SB-715992, Ispinesib, reference compound]
[1]; 1.75 mg/kg, i.v.
  Survival (alive/total): 9/9
  Neutrophils/ul 72 h post-dose +/− S.D.: 1026 ± 229 µL⁻¹
[1]; 1.75 mg/kg, i.v., D3
  Max. Δ body weight (Day): -0.6 ± 0.58 g
  Max. Δ body weight (Day) (%): −2.3 ± 0.51%
[1]; 3.5 mg/kg, i.v.
  Survival (alive/total): 9/9
  Neutrophils/ul 72 h post-dose +/− S.D.: 731 ± 391 µL⁻¹
[1]; 3.5 mg/kg, i.v., D3
  Max. Δ body weight (Day): -0.5 ± 0.37 g
  Max. Δ body weight (Day) (%): −2.0 ± 0.44%
[1]; 3.5 mg/kg, i.v., D4
  Max. Δ body weight (Day): -0.7 ± 0.05 g
  Max. Δ body weight (Day) (%): −2.7 ± 0.17%
[1]; 7.5 mg/kg, i.v.
  Survival (alive/total): 9/9
  Neutrophils/ul 72 h post-dose +/− S.D.: 476 ± 112 µL⁻¹
[1]; 7.5 mg/kg, i.v., D4
  Max. Δ body weight (Day): -0.3 ± 0.05 g
  Max. Δ body weight (Day) (%): −1.3 ± 0.25%
[1]; 7.5 mg/kg, i.v., D10
  Max. Δ body weight (Day): -0.7 ± 1.1 g
  Max. Δ body weight (Day) (%): −3.0 ± 2.49%
[1]; 15 mg/kg, i.v.
  Survival (alive/total): 9/9
[1]; 15 mg/kg, i.v., D7
  Max. Δ body weight (Day): -2.5 ± 0.2 g
  Max. Δ body weight (Day) (%): −10.6 ± 0.75%
[2]; 15 mg/kg, q4d × 3, i.v., (body weight loss)
  Survival (alive/total): 7/9 (body
[2]; 15 mg/kg, q4d × 3, i.v., D3
  % Max. Δ body weight, (Day): −5.6 ± 1.1%
  Max Δ body weight (g) (Day): -1.4 ± 0.3 g
[2]; Study 2, 1.8 mg/kg, Q4d × 3, i.v
  Survival (alive/total): 9/9
[2]; [3]
  % Max. Δ body weight, (Day): 2.0 ± 1.0, %
  Max. Δ body weight (g) (Day): 0.5 ± 0.4, g
[2]; Study 2, 3.5 mg/kg, Q4d × 3, i.v
  Survival (alive/total): 9/9
[2]; [4]
  % Max. Δ body weight, (Day): 0.7 ± 0.3, %
  Max. Δ body weight (g) (Day): 0.2 ± 0.3, g
[2]; Study 2, 7.5 mg/kg, Q4d × 3, i.v
  Survival (alive/total): 9/9
[2]; [5]
  % Max. Δ body weight, (Day): −1.4 ± 1.3, %
  Max. Δ body weight (g) (Day): −0.4 ± 0.8, g
HCT116 tumor xenograft; 1.75 mg/kg, i.v., q4d × 3
  T/C, Day 24 (%): 36%
  Δ Tumor volume, Day 24: 395 ± 84 mm^3
HCT116 tumor xenograft; 3.5 mg/kg, i.v., q4d × 3
  T/C, Day 17 (%): 5%
  T/C, Day 24 (%): 15%
  Δ Tumor volume, Day 17: 39 ± 4 mm^3
  Δ Tumor volume, Day 24: 165 ± 60 mm^3
HCT116 tumor xenograft; 3.5 mg/kg, i.v., q4d × 3, D7
  Max. % Regression (Day): 13%
HCT116 tumor xenograft; 3.5 mg/kg, i.v., q4d × 3, D11
  Max. % Regression (Day): 10%
HCT116 tumor xenograft; 7.5 mg/kg, i.v., q4d × 3
  Δ Tumor volume, Day 17: −177 ± 55 mm^3
  Δ Tumor volume, Day 24: −145 ± 25 mm^3
HCT116 tumor xenograft; 7.5 mg/kg, i.v., q4d × 3, D17
  Max. % Regression (Day): 65%
HCT116 tumor xenograft; 7.5 mg/kg, i.v., q4d × 3, D21
  Max. % Regression (Day): 65%
HCT116 tumor xenograft; 15 mg/kg, i.v., q4d × 3 (only first two doses given)
  Δ Tumor volume, Day 17: −205 ± 24 mm^3
HCT116 tumor xenograft; 15 mg/kg, i.v., q4d × 3 (only first two doses given), D20
  Max. % Regression (Day): 73%

Reference: US8252832B2, “Kinesin inhibitors as cancer therapeutics” (Novartis AG, priority 2007, dated 2012)
